For one data set, the system named is PC3-luc cells. Kind of data set: Prostate cancer intracardiac injection bone metastasis model. It counts as in vivo, athymic mice. The protocol: Athymic mice were given intracardiac (IC) injections of PC3-luc cells on day 0 under ultrasound guidance, and underwent weekly IVIS imaging starting seven days post injection. Cohorts of N=20 control, N=20 Pre (treatment from 3 days prior to IC injection through end of experiment), N=10 Pre7Stop (treatment from 3 days prior to IC injection through 7 days post IC injection) and N=10 Post treatment (treatment from 3 days post-IC injection through end of experiment) mice were dosed with 80 mg/kg KBU2046 daily by oral gavage and mock treated with vehicle all other times. FIG. 3c depicts whole body and FIG. 3b depicts mandible flux as determined from weekly IVIS imaging. […] Arrows denote areas of bone destruction in controls, and corresponding areas in the Pre mouse. Student's t test (b-c) and Fisher's exact test (d) P values between the denoted cohorts are shown.
Prostate cancer: intracardiac (IC) injection. IC injection of 4.0×10^5 PC3-Luc cells into male 6-8 week old athymic mice with IVIS imaging was performed as described (Chu, K. et al., Mol Cancer Res 6, 1259-67 (2008)), and was done so under ultrasound guidance (FIG. 15). Mice were treated pre- and/or post-IC injection, as indicated. The pretreatment cohort emulates a metastasis naïve model wherein cell motility is required in order for cells to invade into a distant organ, in this case the jaw bone, for which this model is widely used. If KBU2046 were inhibiting cell motility, then in this model it would act to inhibit metastasis formation. In contrast, with the post implantation cohort, cells have already completed invasion into the jaw bone, and distant metastasis have been established. […] IVIS imaging was performed 30 minutes after IC injection to confirm systemic distribution of cells, and thereafter weekly for 4 weeks starting seven days post injection, allowing real time tracking of metastasis development and growth. Computed Tomograpgy (CT) (Inveon, Seimens) radiographic imaging was performed on some mice, as indicated, and resultant images analyzed in a blinded fashion using Inveon Research Workplace 4.2 visualization/analysis software and ImageJ. […] Experimental groups were randomly assigned to cages prior to the initiation of the study. CT images were analyzed in a blinded fashion to determine total bone loss using both the Invenon Research Workplace 4.2 visualization/analysis software and ImageJ. Specifically, to assess bone loss in an unbiased manor, an operator randomly loaded images into the system and blocked out identifying information prior to analysis by two separate blinded individuals.

A short description of data set [1]: Examination of organ function after a single intravenous dose. Conditions: single IV dose 15, 75 or 125 mg/kg, day 8 and 14. Type of data set: in vivo. The method, then: Histologic examination of tissue. Organs of athymic male mice stained with H&E, Trichrome or Giemsa were microscopically examined by a mouse pathologist in a blinded fashion, and toxicity scored using an established semi-quantitative histological scoring system (Knodell, R. G. et al., Hepatology 1, 431-5 (1981)) (FIG. 14). The following clinical chemistry parameters were measured in blood of CD1 male and female mice by Charles River Research Animal Diagnostic Services: cholesterol, triglycerides, alanine aminotransferase (ALT), aspartate aminotransferase (AST), total bilirubin, glucose, phosphorus, total protein, calcium, blood urea nitrogen (BUN), creatinine, albumin, Na, K, Cl, white blood cells (with differential), red blood cells, hemoglobin, and platelets.
For examination of organ function, studies used cohorts of 22-24 gm N=3 female and N=3 male (i.e., N=6 mice total per dose cohort) CD1 (ICR) mice (Charles River). […] On day 8 and 14, important organs were weighed, and the following parameters measured in blood: cholesterol, triglycerides, alanine aminotransferase (ALT), aspartate aminotransferase (AST), total bilirubin, glucose, phosphorus, total protein, calcium, blood urea nitrogen (BUN), creatinine, albumin, Na, K, Cl, white blood cells (with differential), red blood cells, hemoglobin, platelets.

The test system of the next data set is PC3-M cells. Kind of data set: Boyden chamber cell invasion assay, PC3-M cells. Type of data set: cell-based, human. The method, then:
Following the synthetic strategy outlined in FIG. 1a, 4′,5,7-trihydroxyisoflavone was used as the chemical scaffold. […] Note, demethylation within the cell cannot be predicted. Therefore, the loss of function was considered to be informative for methylated compounds. […] This adds further evidence of the importance of the C4′-hydroxyl for activity. […] For cell invasion, PC3-M cells were treated with 10 μM compound for a total of 3 days, and cell invasion assays were run at the end of the 3 day period, in the presence of compound. Values are the mean±SEM of three separate experiments, each run in replicates of N=3. […] Values are the mean±SEM of a single experiment, in replicates of N=4, repeated at least once (also N=4). […] The initial structure-activity relationship (SAR) data informed the second round of compound synthesis. […] Compared to 4′,5,7-trihydroxyisoflavone, KBU2046 is non-planar, lacks hydroxyl groups, and particularly those that mediate ER binding, is halogen-substituted, and has a distinctly different biological profile. These characteristics place KBU2046 in a chemically distinct class, compared to the starting compound.
Cell Invasion Assays. Boyden chamber cell invasion assays were performed as previously described^9, using either denatured collagen (BD Biosciences) or type IV human collagen (BD Biosciences), with the experiments repeated, each in N=4 replicates. In some experiments, as indicated, cells were transfected with an expression plasmid, using Lipofectamine 2000™ (Invitrogen), or with siRNA, using DharmaFect Duo (Thermo Scientific) and co-transfected with β-Galactosidase (Plasmid pCMV⋅SPORT-βgal; Life Technology).
The initial round of synthesis was designed to examine the removal of individual chemical fragments. In this manner, the importance of these functional groups in mediating efficacy (inhibition of cell invasion) could be determined. […] Initial assays were performed with PC3 and PC3-M cells. However, as these studies yielded similar findings, subsequent screening assays utilized only PC3-M cells. In designing chemical synthetic routes, priority was given to efficacy and toxicity parameters. […] These additional design features included removal of fragments that mediated genistein binding to the estrogen receptor (ER), as determined by ER-genistein 3D x-ray crystal structures (Protein Data Base IDs: 1X7R and 1X7J, for crystal structures of ERα and ERβ with bound genistein, respectively). These features also included removal of chemical fragments that are considered to increase susceptibility to rapid metabolism, for example by the cytochrome P450 (CYP) pathway. The final feature involved incorporation of chemical characteristics previously shown to be associated with effective drugs and which together generally impart more favorable pharmacologic properties, including those described by Lipinski et al. (Lipinski, C. A. et al., Adv Drug Deliv Rev 46, 3-26 (2001)).

[2] abbreviates: Pre cohort, 80 mg/kg daily oral gavage.

For the compound `O=C1c2ccccc2OCC1c1ccc(F)cc1` (racemic) [KBU2046, (±)-3(4-fluorophenyl)chroman-4-one], the “metastasis to the total body and to the jaw” value in the data set on PC3-luc cells (Post cohort, treatment from 3 days post-IC injection) is “do not differ from control mice”. Moreover, the jaw metastasis entry in the data set on PC3-luc cells (Pre7Stop cohort) is reported as “jaw metastasis is significantly decreased compared to control”. For the same compound, in the data set with PC3-luc cells (Pre7Stop cohort, compared to control and Post cohorts), the total body metastasis entry is listed as “total body metastasis is significantly decreased”. The “metastasis to the mandible” value with PC3-luc cells (setting [2]) is “decreased metastasis to the mandible”. The “total metastatic burden (whole body flux)” value in the data set with PC3-luc cells (setting [2]) is reported as “significant decrease in total metastatic burden”. Also, in the data set with PC3-luc cells (Pre cohort, week 4), the “destruction of bone (mandible, Computed Tomography)” value is given as “decreased destruction of bone”. For the same compound, the “organ weights and blood parameters” value in data set [1] is given as “No abnormal alterations in any of these parameters were observed”. Also, in the data set with PC3-M cells (10 μM compound, 3 days), the “effect on cell invasion” value is listed as “anti-invasive efficacy at least equal to that of the starting compound”. In addition, the “inhibition of cell invasion” value is “does not further inhibit cell invasion” in the data set with PC3-M cells ((S226A)-HSP90β transfected PC3-M cells); “did not significantly inhibit cell invasion” in the data set with PC3-M cells ((S226D)-HSP90β transfected PC3-M cells); “significantly inhibited invasion” in the data set on PC3-M cells (VC and WT-HSP90β transfected PC3-M cells); “significantly inhibits invasion” with PC3-M cells (vector control (VC) transfected PC3-M cells). Also, the “anti-invasion efficacy under TGFβ-stimulated invasion” value in the data set with PC3-M cells (PC3-M cells, ±TGFβ) is “retains efficacy”. Further, the “efficacy on cell invasion” value in the data set with PC3-M cells (siRNA-mediated HSP90β knockdown) is “abrogated KBU2046 efficacy”.

These data come from patent publication US20210293825A1, “METHODS FOR PRECISION THERAPEUTIC TARGETING OF HUMAN CANCER CELL MOTILITY AND KITS THEREOF” (UNITED STATES GOVERNMENT AS REPRESENTED BY THE DEPARTMENT …, priority 2018, published 2021).
